Some test systems named below: Saccharomyces cerevisiae; Escherichia coli ML-35p; Staphylococcus xylosus; Neurospora crassa; Micrococcus luteus; Escherichia coli BL21AI.
Common to all, as to test: ≥ marks a high value that may be exact or a test limit, other limits are often not marked, values filed in µg/mL are converted to µM
Test [1] concerns Staphylococcus aureus ATCC 29313.
In test [2] the test system is Xanthomonas axonopodis pv. glycines ISBF 327.
The subject of test [3] is Pseudomonas aeruginosa ATCC 27853.
The test system of test [4] is Escherichia coli ATCC 25922.
Test [5] relates to Acinetobacter baumannii ATCC 19606.
The subject of test [6] is Staphylococcus aureus ST1065.
The subject of test [7] is Klebsiella pneumoniae ATCC 13883.
The subject of test [8] is Streptococcus pyogenes ATCC 19615.
For test [9], the system named is Candida parapsilosis ATCC 22019.
The test system of test [10] is Staphylococcus aureus ATCC 25923.
Test [11] deals with Enterococcus faecalis ATCC 29212.
Test [12] has as its system Staphylococcus aureus ATCC 43300.
Test [13] has as its system Staphylococcus aureus ATCC BAA-44.
The test system of test [14] is Candida albicans ATCC 200955.
Test [15] concerns Staphylococcus aureus ATCC 33591.
Test [16] concerns Enterococcus faecium ATCC 700221.
Test [17] concerns Escherichia coli DH5alpha.
Test [18] has as its system Burkholderia thailandensis.
Test [19] relates to Bacillus subtilis ATCC 9372.
Test [20] concerns Bacillus anthracis Sterne 34F2.
Test [21] deals with Salmonella enterica subsp. enterica serovar Typhi DMST 22842.
The subject of test [22] is Staphylococcus epidermidis ATCC 12228.
The test system of test [23] is Micrococcus luteus ATCC 10240.

Values after ≈ are worked out from the molar mass of the structure shown.

For `CC[C@H](C)[C@H](NC(=O)[C@@H](NC(=O)[C@H](CCCCN)NC(=O)CNC(=O)[C@H](C)NC(=O)[C@H](CC(C)C)NC(=O)[C@H](CC(N)=O)NC(=O)[C@H](CCCCN)NC(=O)[C@H](CC(C)C)NC(=O)[C@@H](NC(=O)[C@H](CC(=O)O)NC(=O)[C@H](Cc1ccccc1)NC(=O)[C@H](Cc1ccccc1)NC(=O)[C@@H](N)Cc1ccccc1)[C@@H](C)O)C(C)C)C(=O)NCC(=O)N[C@@H](C)C(=O)N[C@@H](CC(C)C)C(=O)N[C@H](C(N)=O)[C@@H](C)O` [FFFDTLKNLAGKVIGALT], the MIC (commonly the lowest concentration found to suppress growth) is at least 62 µM in test [1], at least 33 µM in test [2], 125 µM (≈ 244 µg/mL) in [3] and 62 µM (≈ 121 µg/mL) in test [4].
Regarding `CSCC[C@H](NC(=O)[C@H](Cc1ccccc1)NC(=O)CNC(=O)[C@H](Cc1ccccc1)NC(=O)[C@H](C)NC(=O)[C@H](CCCN=C(N)N)NC(=O)[C@H](CC(N)=O)NC(=O)[C@H](Cc1ccccc1)NC(=O)[C@H](CC(=O)O)NC(=O)[C@H](CCCCN)NC(=O)[C@H](Cc1ccccc1)NC(=O)[C@H](Cc1cnc[nH]1)NC(=O)[C@H](Cc1ccccc1)NC(=O)[C@H](CCC(N)=O)NC(=O)[C@H](CCCCN)NC(=O)[C@@H](N)Cc1ccccc1)C(=O)N[C@H](C(=O)N[C@@H](CCCN=C(N)N)C(=O)N[C@H](C(=O)N[C@@H](C)C(=O)N[C@@H](CC(C)C)C(=O)N[C@@H](CCC(N)=O)C(=O)N[C@@H](C)C(=O)N[C@@H](CCC(=O)O)C(=O)N[C@@H](CCCCN)C(=O)N[C@@H](CC(C)C)C(N)=O)C(C)C)[C@@H](C)O` [FKQFHFKDFNRAFGFMTRVALQAEKL], the figures for the minimal inhibitory concentration (MIC) in test [2], in [3] and in test [4] were at least 40 µM, 80 µM (≈ 254 µg/mL) and 40 µM (≈ 127 µg/mL), respectively.
Consider `CC[C@H](C)[C@H](NC(=O)[C@H](Cc1cnc[nH]1)NC(=O)[C@@H]1CCCN1C(=O)[C@@H](NC(=O)[C@H](CC(C)C)NC(=O)[C@H](CO)NC(=O)[C@H](CC(C)C)NC(=O)[C@@H](N)Cc1ccccc1)[C@@H](C)CC)C(=O)N[C@H](C(=O)N[C@@H](CO)C(=O)NCC(=O)N[C@H](C(=O)N[C@@H](C)C(=O)N[C@@H](CO)C(=O)N[C@@H](CC(C)C)C(=O)N[C@@H](C)C(=O)N[C@@H](CCCCN)C(=O)N[C@@H](Cc1cnc[nH]1)C(=O)N[C@@H](Cc1ccccc1)C(N)=O)C(C)C)C(C)C` [FLSLIPHIVSGVASLAKHF], for which the MIC is 6.25 µM (≈ 12.7 µg/mL) in [5]; 6.25 µM (≈ 12.7 µg/mL) in [6]; 25 µM (≈ 50.9 µg/mL) in test [7]; 1.56 µM (≈ 3.18 µg/mL) in test [8]; at least 50 µM in test [9]; 6.25 µM (≈ 12.7 µg/mL) in [10]. The MIC came to 6.25 µM (≈ 12.7 µg/mL) against Saccharomyces cerevisiae; 200 µM (≈ 407 µg/mL) in test [3]; 25 µM (≈ 50.9 µg/mL) in [11]; 30 µM (≈ 61.1 µg/mL) with Escherichia coli ML-35p; 25 µM (≈ 50.9 µg/mL) in test [4]; 6.25 µM (≈ 12.7 µg/mL) in [12]. In addition, in [13], the MIC was 6.25 µM (≈ 12.7 µg/mL).
As to `CC[C@H](C)[C@H](NC(=O)[C@H](Cc1ccccc1)NC(=O)[C@H](CCCCN)NC(=O)[C@H](CC(C)C)NC(=O)[C@H](CC(C)C)NC(=O)CN)C(=O)N[C@@H](CCCCN)C(=O)N[C@@H](Cc1c[nH]c2ccccc12)C(=O)N[C@@H](CC(C)C)C(=O)N[C@@H](CC(C)C)C(N)=O` [GLLKFIKWLL], the MIC in [14] was at least 47.4 µM; in test [15] it was 7.4 µM (≈ 9.1 µg/mL); in test [3], 256 µM (≈ 315 µg/mL); in test [16] it was 0.8 µM (≈ 0.984 µg/mL); in test [4], 22.1 µM (≈ 27.2 µg/mL).
Regarding `CC[C@H](C)[C@H](NC(=O)[C@H](CCCCN)NC(=O)[C@H](CCCCN)NC(=O)[C@H](CC(C)C)NC(=O)[C@H](CC(C)C)NC(=O)CN)C(=O)N[C@@H](CCCCN)C(=O)N[C@@H](Cc1c[nH]c2ccccc12)C(=O)N[C@@H](CC(C)C)C(=O)N[C@@H](CC(C)C)C(N)=O` [GLLKKIKWLL], the MIC in test [14] is at least 47.4 µM; in test [15], 28.4 µM (≈ 34.4 µg/mL); in test [3], 28.4 µM (≈ 34.4 µg/mL); in test [16] it was 22.1 µM (≈ 26.8 µg/mL); in [4] it was 12.5 µM (≈ 15.1 µg/mL).
In the case of `CC[C@H](C)[C@H](NC(=O)CNC(=O)[C@H](CO)NC(=O)CN)C(=O)N[C@@H](CC(C)C)C(=O)N[C@H](C(=O)N[C@@H](CC(C)C)C(=O)N[C@H](C(=O)N[C@@H](CCCCN)C(=O)N[C@@H](CCCN=C(N)N)C(=O)N[C@@H](CCCCN)C(=O)O)[C@@H](C)CC)[C@@H](C)CC` [GSGILILIKRK], the minimal inhibitory concentration (MIC) (against Staphylococcus xylosus; in test [17]) was at least 64 µM in each case.
On to `CC[C@H](C)[C@H](NC(=O)[C@@H]1CCCN1C(=O)CNC(=O)[C@@H]1CCCN1C(=O)[C@H](CCCN=C(N)N)NC(=O)[C@@H]1CCCN1C(=O)[C@H](CCC(N)=O)NC(=O)[C@H](CC(N)=O)NC(=O)[C@@H]1CCCN1C(=O)[C@H](CC(N)=O)NC(=O)[C@H](Cc1ccccc1)NC(=O)[C@@H]1CCCN1C(=O)[C@H](CO)NC(=O)[C@@H]1CCCN1C(=O)[C@H](CCCN=C(N)N)NC(=O)[C@@H](NC(=O)[C@H](CC(=O)O)NC(=O)[C@H](Cc1ccccc1)NC(=O)[C@@H](NC(=O)[C@@H]1CCCN1C(=O)CNC(=O)[C@H](CCC(N)=O)NC(=O)[C@H](Cc1cnc[nH]1)NC(=O)[C@H](CCCN=C(N)N)NC(=O)[C@@H](N)Cc1cnc[nH]1)[C@@H](C)CC)[C@@H](C)O)C(=O)N[C@@H](Cc1ccc(O)cc1)C(=O)O` [HRHQGPIFDTRPSPFNPNQPRPGPIY], for which the MIC against Neurospora crassa was 0.707 µM (≈ 2.14 µg/mL); in test [18], at least 50 µM; in the test on Micrococcus luteus, 0.707 µM (≈ 2.14 µg/mL); in [19], at least 100 µM; in test [20], at least 100 µM.
Turning to `NCCCC[C@H](NC(=O)[C@H](CCCN=C(N)N)NC(=O)[C@H](CCCCN)NC(=O)[C@H](CO)NC(=O)CNC(=O)[C@H](CO)NC(=O)CNC(=O)[C@H](CO)NC(=O)[C@H](CCCCN)NC(=O)[C@H](CCCN=C(N)N)NC(=O)[C@@H](N)CCCCN)C(=O)O` [KRKSGSGSKRK], the MIC (against Staphylococcus xylosus; in test [17]) was at least 64 µM in each case.
Take `CC(C)[C@H](NC(=O)CNC(=O)[C@@H](N)CC(N)=O)C(=O)N[C@@H](CCC(N)=O)C(=O)N1CCC[C@H]1C(=O)N[C@@H](CCCCN)C(=O)N[C@@H](Cc1ccc(O)cc1)C(=O)N[C@@H](CCCN=C(N)N)C(=O)N[C@@H](Cc1c[nH]c2ccccc12)C(=O)N[C@@H](Cc1c[nH]c2ccccc12)C(=O)N[C@@H](CCCN=C(N)N)C(=O)N[C@@H](Cc1c[nH]c2ccccc12)C(=O)N[C@@H](Cc1c[nH]c2ccccc12)C(=O)N[C@@H](CCCN=C(N)N)C(=O)N[C@@H](CCCN=C(N)N)C(=O)N[C@@H](Cc1c[nH]c2ccccc12)C(=O)N[C@@H](Cc1c[nH]c2ccccc12)C(=O)N[C@@H](Cc1c[nH]c2ccccc12)C(=O)N[C@@H](Cc1c[nH]c2ccccc12)C(N)=O` [NGVQPKYRWWRWWRRWWWW]: the MIC in [10] was over 31.2 µM; in test [21] it was 31.2 µM (≈ 91 µg/mL); in test [3], over 31.2 µM; in test [22], 31.2 µM (≈ 91 µg/mL); in [4], over 31.2 µM.
Turning to `CC[C@H](C)[C@H](NC(=O)[C@H](C)NC(=O)[C@H](CCCN=C(N)N)NC(=O)[C@@H]1CCCN1C(=O)[C@@H]1CCCN1C(=O)[C@H](CCCN=C(N)N)NC(=O)[C@@H]1CCCN1C(=O)[C@H](CCCN=C(N)N)NC(=O)[C@@H]1CCCN1C(=O)[C@H](CC(C)C)NC(=O)[C@H](Cc1ccc(O)cc1)NC(=O)[C@@H]1CCCN1C(=O)[C@@H]1CCCN1C(=O)[C@H](CCCCN)NC(=O)[C@H](CC(=O)O)NC(=O)[C@@H](N)C(C)C)C(=O)N[C@@H](Cc1ccc(O)cc1)C(=O)N[C@@H](CC(N)=O)C(=O)N[C@@H](CCCN=C(N)N)C(N)=O` [VDKPPYLPRPRPPRAIYNR], the MIC with Escherichia coli BL21AI was 13.9 µM (≈ 32 µg/mL); in test [23] it was 6.94 µM (≈ 16 µg/mL).

The record behind these values is DBAASP.
